≈ marks a conversion by molar mass, not a printed value. Where two headings read alike, the source gives them in different places.
How the values were obtained:
[1] = tested on: human platelet-rich plasma (collagen-induced platelet aggregation); assay: In vitro inhibition of collagen-induced human platelet aggregation (Born aggregometer method); assay type: cell-based; details: human PRP, 0.05 mL of a collagen suspension
Procedure: (§1) The aggregometer method of Born, C. […] The human volunteer donor's arm is cleansed with 70% ethyl alcohol. A sterile 20 ml syringe and needle are used to withdraw 20 ml of blood.
(§2) All glassware used for preparation of PRP is silicon treated. […] The various compounds tested were dissolved in dimethylsulfoxide (DMSO) so that 5 mcl added to the platelet rich plasma would yield the desired test concentration. Vehicle control trials were done and compared with aggregation induced in platelet rich plasma containing various concentrations of the test compounds. Dose response curves were obtained and Inhibitor Concentration IC50) values calculated.

[2] = tested on: human platelet-rich plasma (ADP-induced platelet aggregation); assay: In vitro inhibition of ADP-induced human platelet aggregation (Born aggregometer method); assay type: cell-based
Procedure: as §1, §2

[3] = tested on: biolaser induced thrombosis (thrombus formation); assay: In vivo inhibition of biolaser induced thrombosis in rabbit ear chamber; parameters: species or system English lop-ear rabbits
Description: The laser induced thrombosis method is a modification of the technique developed by Sanders, A. G., et al. in Brit. J Exp. Pathol., 1954, 35, 331 and Grant, L., et al. in Proc. Soc. Exp. Biol. Med., 1965, 119, 1123. A detailed description of this method has been described by Fleming, J. S., et al., in Platelets and Thrombosis, A. Scriabine and S. Sherry, eds., Baltimore, Univ. Park Press, pp. 247-262, 1974 and is hereby incorporated by reference.
Briefly, Lucite ear chambers were chronically implanted in adult, English lop-ear rabbits. The animals were conditioned to lie quietly in the supine position. Localized microvascular injury was induced by focusing a single ruby laser beam through a microscope into the lumen of a vessel 10-60 μM in diameter. This evoked the formation of a small thrombus consisting of platelets accumulated around a core of one or two damaged red cells. Thrombus area was determined as a product of two perpendicular measurements made by using a micrometer eye piece. The mean thrombus area (μM^2) obtained for 10 trials in each rabbit served as a control value. The test compound was administered orally and post-dose trials were performed at selected times. Pharmacological activity was evaluated by comparing pre- and post-dose mean thrombus areas.

[4] = human PRP, ADP 0.5 mcg/mL, read-out: IC50 - Human PRP vs:ADP

O=C(O)CCCCCCCCn1ncc(-c2ccccc2)c1-c1ccccc1 [Example 18, 4,5-Diphenyl-lH-pyrazol-1-nonanoic acid]
IC50 [1]: 0.45 µg/mL (≈ 1.2 µM)
IC50 [2, 4]: 2.5 µg/mL (≈ 6.64 µM)

O=C(O)CSCCCCCCn1nc(-c2ccccc2)c(-c2ccccc2)c1-c1ccccc1 [Example 21, [[6-(3,4,5-Triphenyl-lH-pyrazol-1-yl)hexyl]thio]acetic acid]
IC50 [1]: 0.15 µg/mL (≈ 0.319 µM)
IC50 [2, 4]: 0.41 µg/mL (≈ 0.871 µM)

O=C(O)CCCCCCCn1ncc(-c2ccccc2)c1-c1ccccc1 [Example 44, 4,5-Diphenyl-lH-pyrazole-1-octanoic acid]
IC50 [2, 4]: 0.6 µg/mL (≈ 1.66 µM)

c1ccc(-c2nn(CCCCCCCCc3nn[nH]n3)c(-c3ccccc3)c2-c2ccccc2)cc1 [Example 40, 5-[8-(3,4,5-Triphenyl-lH-pyrazol-1-yl)octyl]-2 H-tetrazole]
IC50 [1]: 0.052 µg/mL (≈ 0.109 µM)
IC50 [2, 4]: 0.5 µg/mL (≈ 1.05 µM)

O=C(O)CCCC=CCCCn1nc(-c2ccccc2)c(-c2ccccc2)c1-c1ccccc1 [Example 10, (Z) and (E)-9-(3,4,5-Triphenyl-lH-pyrazol-1-yl)-5-nonenoic acid hydrate]
IC50 [1]: 0.12 µg/mL
IC50 [2, 4]: 0.35 µg/mL

O=C(O)CCCCCCCn1nc(-c2ccccc2)c(-c2ccccc2)c1-c1ccccc1 [Example 8, 3,4,5-Triphenyl-lH-pyrazol-1-octanoic acid hydrate]
IC50 [2, 4]: 1.9 µg/mL

O=C(O)CCCCCCCCn1nc(-c2ccccc2)c(-c2ccccc2)c1-c1ccccc1 [Example 15, 3,4,5-Triphenyl-lH-pyrazol-1-nonanoic acid hydrate]
IC50 [1]: 0.068 µg/mL
inhibition of thrombus formation ([3]; oral 1 mg/kg): approximately 30%
inhibition of thrombus formation ([3]; oral 10 mg/kg): over 60%
inhibition of thrombus formation ([3]; oral 30 mg/kg): over 60%
IC50 [2, 4]: 0.16 µg/mL

O=C(O)COCCCCCCn1nc(-c2ccccc2)c(-c2ccccc2)c1-c1ccccc1 [Example 4, [[6-(3,4,5-Triphenyl-lH-pyrazol-1-yl)hexyl]oxy]acetic acid]
IC50 [1]: 0.096 µg/mL (≈ 0.211 µM)
IC50 [2, 4]: 0.2 µg/mL (≈ 0.44 µM)

O=C(O)C[S+]([O-])CCCCCCn1nc(-c2ccccc2)c(-c2ccccc2)c1-c1ccccc1 (stereo not shown) [Example 25, [[6-(3,4,5-Triphenyl-lH-pyrazol-1-yl)hexyl]sulfinyl]acetic acid hydrate]
IC50 [2, 4]: 3.2 µg/mL

O=C(O)CCCCCCCCn1cc(-c2ccccc2)c(-c2ccccc2)n1 [Example 17, 3,4-Diphenyl-lH-pyrazol-1-nonanoic acid hydrate]
IC50 [2, 4]: 1.5 µg/mL

O=C(O)CSCCCCCn1nc(-c2ccccc2)c(-c2ccccc2)c1-c1ccccc1 [Example 27, [[5-(3,4,5-Triphenyl-lH-pyrazol-1-yl)pentyl]thio]acetic acid]
IC50 [1]: 0.16 µg/mL (≈ 0.35 µM)
IC50 [2, 4]: 1.9 µg/mL (≈ 4.16 µM)

OCCN(CCO)c1nc(N2CCCCC2)c2nc(N(CCO)CCO)nc(N3CCCCC3)c2n1 [dipyridamole, reference compound]
IC50 ([2]; Homo sapiens, read-out: IC50 vs. ADP): > 512 µg/mL

COC(=O)CCCCCCCCn1nc(-c2ccccc2)c(-c2ccccc2)c1-c1ccccc1 [Example 14, Methyl 3,4,5-triphenyl-lH-pyrazol-1-nonanoate]
IC50 [1]: 0.27 µg/mL (≈ 0.579 µM)
IC50 [2, 4]: 2 µg/mL (≈ 4.29 µM)

O=C(O)CCCCCCCCCn1nc(-c2ccccc2)c(-c2ccccc2)c1-c1ccccc1 [Example 36, 3,4,5-triphenyl-lH-pyrazole-1-decanoic acid hydrate]
IC50 [2, 4]: 3.5 µg/mL
